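Growth conditions: 96-well plates. Treatment: test compound, 48 hours, 5 concentrations. Analysis: linear interpolation between bracketing concentrations; unreached endpoints set to highest concentration. The concentration for 50% growth inhibition is given as GI50.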 Calls of active or inactive are those of the source. Rule as the data show it: active = GI50 up to about 1.1 µM and inactive = higher.
Experiments:
Test in all cases: NCI tumour cell line growth inhibition, 48 h
OVCAR-5 = test system: OVCAR-5
Malme-3M = test system: Malme-3M
RXF 393 = test system: RXF 393
UO-31 = test system: UO-31
K562 = test system: K562
SN12C = test system: SN12C
SNB-19 = test system: SNB-19
IGROV-1 = test system: IGROV-1
NCI-H23 = test system: NCI-H23
A549 = test system: A549
HCC 2998 = test system: HCC 2998
MDA-N = test system: MDA-N
SNB-75 = test system: SNB-75
NCI-H460 = test system: NCI-H460
KM12 = test system: KM12
OVCAR-3 = test system: OVCAR-3
HCT-15 = test system: HCT-15
SF-539 = test system: SF-539
HCT-116 = test system: HCT-116
HL-60 = test system: HL-60
786-0 = test system: 786-0
SF-295 = test system: SF-295
CCRF-CEM = test system: CCRF-CEM
Hs-578T = test system: Hs-578T
UACC-62 = test system: UACC-62
EKVX = test system: EKVX
ACHN = test system: ACHN
OVCAR-8 = test system: OVCAR-8
UACC-257 = test system: UACC-257
OVCAR-4 = test system: OVCAR-4
U-251 = test system: U-251
SK-MEL-2 = test system: SK-MEL-2
SF-268 = test system: SF-268
SR = test system: SR
MOLT-4 = test system: MOLT-4
HOP-92 = test system: HOP-92
NCI-H522 = test system: NCI-H522
DU-145 = test system: DU-145
NCI-H226 = test system: NCI-H226
MDA-MB-435 = test system: MDA-MB-435
BT-549 = test system: BT-549
M14 = test system: M14
HT-29 = test system: HT-29
NCI/ADR-RES = test system: NCI/ADR-RES
TK-10 = test system: TK-10
SK-MEL-5 = test system: SK-MEL-5
MCF7 = test system: MCF7
CAKI-1 = test system: CAKI-1
COLO 205 = test system: COLO 205
HOP-62 = test system: HOP-62
SK-OV-3 = test system: SK-OV-3
LOX IMVI = test system: LOX IMVI
MDA-MB-231 = test system: MDA-MB-231
PC-3 = test system: PC-3
RPMI-8226 = test system: RPMI-8226

SMILES: CCOC(=O)c1cc(-c2ccc(OC)cc2)c([N+](=O)[O-])n1C
- GI50 (OVCAR-5): > 10 µM (inactive)
- GI50 (Malme-3M): > 10 µM (inactive)
- GI50 (RXF 393): 2.13 µM (inactive)
- GI50 (UO-31): > 10 µM (inactive)
- GI50 (K562): 6.84 µM (inactive)
- GI50 (SN12C): > 10 µM (inactive)
- GI50 (SNB-19): > 10 µM (inactive)
- GI50 (IGROV-1): > 10 µM (inactive)
- GI50 (NCI-H23): > 10 µM (inactive)
- GI50 (A549): > 10 µM (inactive)
- GI50 (HCC 2998): > 10 µM (inactive)
- GI50 (MDA-N): 8.91 µM (inactive)
- GI50 (SNB-75): > 10 µM (inactive)
- GI50 (NCI-H460): > 10 µM (inactive)
- GI50 (KM12): > 10 µM (inactive)
- GI50 (OVCAR-3): > 10 µM (inactive)
- GI50 (HCT-15): > 10 µM
- GI50 (SF-539): > 10 µM (inactive)
- GI50 (HCT-116): > 10 µM (inactive)
- GI50 (HL-60): > 10 µM (inactive)
- GI50 (786-0): > 10 µM (inactive)
- GI50 (SF-295): > 10 µM (inactive)
- GI50 (CCRF-CEM): > 10 µM (inactive)
- GI50 (Hs-578T): > 10 µM (inactive)
- GI50 (UACC-62): > 10 µM (inactive)
- GI50 (EKVX): > 10 µM (inactive)
- GI50 (ACHN): > 10 µM (inactive)
- GI50 (OVCAR-8): > 10 µM (inactive)
- GI50 (UACC-257): > 10 µM (inactive)
- GI50 (OVCAR-4): > 10 µM (inactive)
- GI50 (U-251): > 10 µM (inactive)
- GI50 (SK-MEL-2): > 10 µM (inactive)
- GI50 (SF-268): > 10 µM (inactive)
- GI50 (SR): 9.1 µM (inactive)
- GI50 (MOLT-4): > 10 µM (inactive)
- GI50 (HOP-92): > 10 µM (inactive)
- GI50 (NCI-H522): > 10 µM (inactive)
- GI50 (DU-145): > 10 µM (inactive)
- GI50 (NCI-H226): > 10 µM (inactive)
- GI50 (MDA-MB-435): > 10 µM (inactive)
- GI50 (BT-549): > 10 µM (inactive)
- GI50 (M14): > 10 µM (inactive)
- GI50 (HT-29): > 10 µM (inactive)
- GI50 (NCI/ADR-RES): > 10 µM (inactive)

SMILES: NC(N)=NCCC(O)(P(=O)(O)O)P(=O)(O)O
- GI50 (OVCAR-5): > 100 µM (inactive)
- GI50 (Malme-3M): > 100 µM (inactive)
- GI50 (TK-10): > 100 µM (inactive)
- GI50 (RXF 393): > 100 µM (inactive)
- GI50 (UO-31): > 100 µM (inactive)
- GI50 (SNB-19): > 100 µM (inactive)
- GI50 (IGROV-1): > 100 µM (inactive)
- GI50 (NCI-H23): > 100 µM (inactive)
- GI50 (A549): > 100 µM (inactive)
- GI50 (HCC 2998): > 100 µM (inactive)
- GI50 (SK-MEL-5): > 100 µM (inactive)
- GI50 (MDA-N): > 100 µM (inactive)
- GI50 (NCI-H460): > 100 µM (inactive)
- GI50 (KM12): > 100 µM (inactive)
- GI50 (OVCAR-3): > 100 µM (inactive)
- GI50 (HCT-15): > 100 µM
- GI50 (SF-539): > 100 µM (inactive)
- GI50 (MCF7): > 100 µM (inactive)
- GI50 (HCT-116): > 100 µM (inactive)
- GI50 (CAKI-1): > 100 µM (inactive)
- GI50 (786-0): 46.9 µM (inactive)
- GI50 (SF-295): > 100 µM (inactive)
- GI50 (Hs-578T): 15 µM (inactive)
- GI50 (UACC-62): > 100 µM (inactive)
- GI50 (EKVX): > 100 µM (inactive)
- GI50 (COLO 205): > 100 µM (inactive)
- GI50 (ACHN): > 100 µM (inactive)
- GI50 (UACC-257): > 100 µM (inactive)
- GI50 (HOP-62): > 100 µM (inactive)
- GI50 (SF-268): > 100 µM (inactive)
- GI50 (SK-OV-3): > 100 µM (inactive)
- GI50 (LOX IMVI): > 100 µM (inactive)
- GI50 (NCI-H522): > 100 µM (inactive)
- GI50 (DU-145): > 100 µM (inactive)
- GI50 (MDA-MB-231): > 100 µM (inactive)
- GI50 (NCI-H226): > 100 µM (inactive)
- GI50 (BT-549): > 100 µM (inactive)
- GI50 (M14): > 100 µM (inactive)
- GI50 (NCI/ADR-RES): > 100 µM (inactive)
- GI50 (PC-3): > 100 µM (inactive)

SMILES: COc1cc(CNc2nc3cc(N)cc(N)c3nc2-c2ccccc2)cc(OC)c1
- GI50 (RPMI-8226): 2.2 µM (inactive)
- GI50 (UACC-257): 26.1 µM (inactive)

— ChEMBL document CHEMBL1201862, “PubChem BioAssay data set” (2004)
